The test system of assay [1] is MDA-MB-231 cells. In words: Breast cancer cell viability assay (Alamar Blue). In kind it is cell-based. Conditions: Homo sapiens, 72 hrs, 10% FBS media containing 25 nM selenite. The protocol: MDA-MB-231 cells were plated 2000 cells/well in 96-well black optical plates in the presence of 10% FBS media containing 25 nM selenite. The following day cells were treated with various concentrations of compounds (0.1% DMSO final) and incubated for 72 hrs. After the incubation Alamar Blue reagent was added to each well and incubated for additional 3 hrs. Fluorescence was read ex: 530 nm/em: 590 nm, and percent of viability was determined using DMSO vehicle and no cell (blank) controls.
(The colour change of resazurin is a common sign of viable cells or microbes.)

The subject of assay [2] is MDA-MB-231. The experiment in a line: Cancer cell viability assay (MTT), MDA-MB-231. The format is cell-based. Conditions: 10% FBS media. As to the method:
(§1) Breast cancer and glioblastoma cell lines were plated 4000 cells/well in 96-well plates in the presence of 10% FBS media. The following day cells were treated with various concentrations of example compounds (0.1% DMSO final) and incubated for 72 hrs. After the incubation An MTT assay was performed to access cell viability. Percent of viability was determined using DMSO vehicle and no cell (blank) controls.

Assay [3] concerns MDA-MB-468. The experiment in a line: Cancer cell viability assay (MTT), MDA-MB-468. In kind it is cell-based. Conditions: 10% FBS media. As to the method:
as §1

For assay [4], the target named is gluthathione reductase (GR) (Homo sapiens (Human), UniProt P00390). The experiment in a line: Inhibition of recombinant GR (GSSG assay). In kind it is biochemical. Conditions: 2 nM GR, 250 μM NADPH, 15 minutes incubation, 1 mM GSSG. As to the method:
(§2) Small molecule inhibition of recombinant thioredoxin reductase 1 (TrxR1) and gluthathione reductase (GR) was examined in 96-well plate format. 30 nM TrxR1 was incubated in the presence of 250 μM NADPH, 0.1 mg/ml BSA, and various concentrations of the compounds (1% DMSO final) in 50 mM Tris (pH 7.5) and 2 mM EDTA buffer for 15 minutes. Following the incubation period, 2 mM DTNB was added to each well and the change in O.D. at 412 nm was followed. Percent activity was determined using DMSO vehicle and no TrxR1 (blank) controls. 2 nM GR was incubated in the presence of 250 μM NADPH, 0.1 mg/ml BSA, and various concentrations of compounds (1% DMSO final) in 50 mM Tris (pH 7.5) and 2 mM EDTA buffer for 15 minutes. Following the incubation period, 1 mM GSSG was added to each well and the change in O.D. at 340 nm was followed. Percent activity was determined using DMSO vehicle and no GR (blank) controls.

Assay [5] addresses recombinant thioredoxin reductase 1 (TrxR1) (Homo sapiens (Human), UniProt Q16881). The experiment in a line: Inhibition of recombinant TrxR1 (DTNB assay). The format is biochemical. As to conditions: 30 nM TrxR1, 250 μM NADPH, 15 minutes incubation, 2 mM DTNB; read-out: TrxR inhibition. As to the method:
as §2

Assay [6] has as its system U-87 MG. The experiment in a line: Cancer cell viability assay (MTT), U-87 MG. In kind it is cell-based. Conditions: 72 hrs, 10% FBS media. As to the method: as §1
Assay [7] deals with FaDu cells. The experiment in a line: Head and neck cancer cell viability assay (Cell-Quanti Blue). As to conditions: Homo sapiens, 72 hrs, 10% FBS media containing 25 nM selenite. In kind it is cell-based. As to the method: FaDu cells were plated 2000 cells/well in 96-well black optical plates in the presence of 10% FBS media containing 25 nM selenite. The following day cells were treated with various concentrations of the compound of Example 1 (0.1% DMSO final) and incubated for 72 hrs. After the incubation Cell-Quanti Blue reagent was added to each well and incubated for additional 3 hrs. Fluorescence was read ex: 530 nm/em: 590 nm, and percent of viability was determined using DMSO vehicle and no cell (blank) controls.

Chain of gluthathione reductase (GR) (P00390 44-522): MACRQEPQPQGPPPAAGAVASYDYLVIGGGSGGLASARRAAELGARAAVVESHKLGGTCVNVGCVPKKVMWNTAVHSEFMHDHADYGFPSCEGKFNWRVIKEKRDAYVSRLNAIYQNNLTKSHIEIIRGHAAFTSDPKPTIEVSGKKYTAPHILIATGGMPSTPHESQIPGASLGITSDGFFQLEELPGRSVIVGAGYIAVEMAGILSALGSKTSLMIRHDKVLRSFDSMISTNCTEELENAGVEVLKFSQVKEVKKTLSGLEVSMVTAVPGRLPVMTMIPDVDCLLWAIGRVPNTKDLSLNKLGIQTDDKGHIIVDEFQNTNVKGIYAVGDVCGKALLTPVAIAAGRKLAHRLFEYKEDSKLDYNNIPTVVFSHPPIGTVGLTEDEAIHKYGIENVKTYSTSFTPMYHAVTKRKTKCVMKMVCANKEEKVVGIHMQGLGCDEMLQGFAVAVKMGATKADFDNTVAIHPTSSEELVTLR
Chain of recombinant thioredoxin reductase 1 (TrxR1) (Q16881 151-649): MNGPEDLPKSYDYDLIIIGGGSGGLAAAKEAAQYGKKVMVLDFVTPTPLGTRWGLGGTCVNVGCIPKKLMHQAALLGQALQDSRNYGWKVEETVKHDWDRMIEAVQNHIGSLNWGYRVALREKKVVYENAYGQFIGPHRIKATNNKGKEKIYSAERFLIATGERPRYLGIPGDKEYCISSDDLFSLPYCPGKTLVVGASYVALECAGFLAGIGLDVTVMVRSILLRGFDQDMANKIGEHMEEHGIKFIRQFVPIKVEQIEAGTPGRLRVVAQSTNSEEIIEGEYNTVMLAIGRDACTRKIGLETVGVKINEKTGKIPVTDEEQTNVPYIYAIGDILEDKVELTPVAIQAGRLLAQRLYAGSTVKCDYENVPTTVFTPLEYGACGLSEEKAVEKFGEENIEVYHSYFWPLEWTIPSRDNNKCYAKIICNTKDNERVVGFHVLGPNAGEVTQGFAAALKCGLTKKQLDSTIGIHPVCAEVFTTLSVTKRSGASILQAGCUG

In the case of `COc1ccc([N+](=O)[O-])c(S(=O)(=O)c2ccccn2)n1` [Example 1, 6-Methoxy-3-nitro-2-(pyridin-2-ylsulfonyl)pyridine], the IC50 in assay [1] stood at 3610 nM; in assay [2] (Homo sapiens, MDA-MB-231, 72 hrs) it was 2970 nM; in assay [3] (Homo sapiens, MDA-MB-468, 72 hrs) it was 4340 nM; in assay [4], 64200 nM; in assay [5], 26.8 nM; in assay [6] (Homo sapiens, U-87 MG) it was 8200 nM. The IC50 in assay [7] turned out to be 1610 nM.

Take `O=[N+]([O-])c1ccc(Cl)nc1S(=O)(=O)c1ccccn1` [Example 2, 6-Chloro-3-nitro-2-(pyridin-2-ylsulfonyl)pyridine]: the figures for the IC50 in assay [4], in assay [5] and in assay [7] were 9890 nM, 56.9 nM and 610 nM, respectively.

`CN(C)c1ccc([N+](=O)[O-])c(S(=O)(=O)c2ccccn2)n1` [Example 3, 6-Dimethylamino-3-nitro-2-(pyridin-2-ylsulfonyl)pyridine]: the IC50 was greater than 100000 nM in assay [4], 558 nM in assay [5] and 2890 nM in assay [7].

In the case of `COc1ccc([N+](=O)[O-])c(S(=O)(=O)c2ccncc2)n1` [Example 4, 6-methoxy-3-nitro-2-(pyridin-4-ylsulfonyl)pyridine], the IC50 in assay [1] is greater than 100000 nM; in assay [4], 11200 nM; in assay [5] it was 0.854 nM.

On to `COc1ccc([N+](=O)[O-])c(S(=O)(=O)c2ncccn2)n1` [Example 5, 2-((6-methoxy-3-nitropyridin-2-yl)sulfonyl)pyrimidine], for which the values for the IC50 in assay [1], in assay [4] and in assay [5] were 4540 nM, greater than 100000 nM and 10.8 nM, respectively.

As to `COc1ccc([N+](=O)[O-])c(S(=O)(=O)c2ncc[nH]2)n1` [Example 6, 2-((1H-imidazol-2-yl)sulfonyl)-6-methoxy-3-nitropyridine], the values for the IC50 in assay [1], in assay [4] and in assay [5] were 10800 nM, greater than 100000 nM and 3.99 nM, respectively.

Turning to `COc1ccc([N+](=O)[O-])c(S(=O)(=O)c2nc(C)cs2)n1` [Example 7, 2-((6-methoxy-3-nitropyridin-2-yl)sulfonyl)-4-methylthiazole], the IC50 in assay [1] is 3090 nM; in assay [4], greater than 100000 nM; in assay [5], 6.9 nM; in assay [7], 45700 nM.

Turning to `COc1ccc([N+](=O)[O-])c([S+]([O-])c2ccccn2)n1` (stereo not drawn) [Example 8, 6-Methoxy-3-nitro-2-(pyridin-2-ylsufinyl)-pyridine], the IC50 in assay [2] (72 hrs) came to 1020 nM; in assay [3] (72 hrs), 960 nM; in assay [5], 5.5 nM; in assay [6] it was 2530 nM.

For the origin of these results see patent US11028067B2, “Heteroarylsulfonyl-substituted pyridines and their use in the treatment of cancer” (Oblique Therapeutics AB, priority 2017, dated 2021).
